Experiments:
ER = ER transcriptional activity on MMTV-ERE-LUC in HepG2 and HS578T cells; assay type: cell-based; conditions: data not shown
[1] = test system: glucocorticoid receptor (GR); assay: GR transcriptional activity on MMTV-LUC, CV-1 cells, GR co-expressed with PR-B; assay type: cell-based; conditions: progesterone and dexamethasone, FIG. 5B
Experimental: (§1) Cells were seeded in 12-well, 96-well or 10 cm tissue culture plates. […] 20 μg of DNA/ml of transfection buffer were used in each transfection reaction. In this mix, the concentration of the luciferase plasmids and that of the internal control plasmid pCH110 (Pharmacia, Inc.), which contains the gene for the β-galactosidase enzyme, remained constant ([…] of each plasmid DNA), while the receptor plasmid concentration varied as indicated for each experiment. Different amounts of receptor parental plasmid, pSV2-neo (Dr. Bert O'Malley, Baylor College of Medicine, Houston, Tex.) was included to keep constant the total amount of the SV40 enhancer vectors. pGEM4 plasmid DNA (Promega Biotech, Madison, Wis.) was added to balance the total DNA concentration to 20 g/reaction. For the 96-well plate experiments, transfections were performed on a Biomek 1000 Automated Laboratory Workstation (Beckman Instruments, Fullerton, Calif.).
Cells were seeded 24 hours prior to transfection in the fiat-bottom tissue culture plates ([…]) in phenol red-free DMEM containing 10% FCS. […] Using calcium phosphate co-precipitation, DNA solution was added dropwise with vortexing into an equal volume of 2X HBS pH 6.9 (280 mM NaCl. 50 mM HEPES, 1.5 mM Na2 HPO4) and precipitates were allowed to form for 20 minutes. […]

[2] = test system: PR-B (co-expressed with PR-A587); assay: Repression of PR-B mediated MMTV-LUC transcription by DNA binding mutant PR-A587, CV-1 cells; assay type: cell-based, human; conditions: equimolar phPR-A587 and phPR-B DNA, 10^-7 M progesterone, FIG. 9
Experimental: The relative luciferase activity is calculated by dividing the normalized luciferase value at a given point by that obtained in the absence of transfected receptor or ligand.
as §1
Cells were seeded 24 hours prior to transfection in the fiat-bottom tissue culture plates ([…]) in phenol red-free DMEM containing 10% FCS. […]

human estrogen receptor = target: T1, human estrogen receptor (Homo sapiens, UniProt P03372); assay: ER transcriptional activity on MMTV-ERE-LUC, CV-1 cells, ER alone; assay type: cell-based; conditions: 10^-7 M 17β-estradiol
T1 construct: expressed in transfected cells; host or cells: CV-1
T1 sequence (P03372 1-595): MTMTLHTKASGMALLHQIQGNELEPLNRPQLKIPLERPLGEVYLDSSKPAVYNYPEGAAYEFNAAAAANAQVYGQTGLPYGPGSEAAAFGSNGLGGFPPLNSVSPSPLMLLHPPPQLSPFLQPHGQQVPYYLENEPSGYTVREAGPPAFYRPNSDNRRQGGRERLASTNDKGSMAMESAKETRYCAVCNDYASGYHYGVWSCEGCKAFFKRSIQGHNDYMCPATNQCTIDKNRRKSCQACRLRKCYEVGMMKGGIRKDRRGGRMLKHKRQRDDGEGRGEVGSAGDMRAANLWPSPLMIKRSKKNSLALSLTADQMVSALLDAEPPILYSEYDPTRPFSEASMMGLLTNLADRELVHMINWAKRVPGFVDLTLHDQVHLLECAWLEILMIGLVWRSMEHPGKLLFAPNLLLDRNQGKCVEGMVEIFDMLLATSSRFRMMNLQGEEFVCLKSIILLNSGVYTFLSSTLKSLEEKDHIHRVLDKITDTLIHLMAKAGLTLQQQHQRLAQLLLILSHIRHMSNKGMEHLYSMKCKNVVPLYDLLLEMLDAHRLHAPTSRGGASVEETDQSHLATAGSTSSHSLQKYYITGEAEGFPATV
Experimental: All values were normalized for transfection efficiency by simultaneous estimation of luciferase and β-galactocidase activities. The relative luciferase activity is calculated by dividing the normalized luciferase value at a given point by that obtained in the absence of transfected receptor or ligand. Data shown represent the mean +/- the average deviation from the mean of triplicate estimations.
Experimental protocols and data calculation are as described in FIG. 11. The experiment detailed above is representative of independent assays (N>3). Data shown represent the mean +/- the average deviation from the mean of triplicate estimations.
Vegeto et al., supra. Cells were plated into 96-well tissue culture plates. The vector DNA was introduced into the CV-1 cells using calcium phosphate coprecipitation as described herein. More specifically, 20 μg of DNA/ml of transfection buffer were used in each transfection. […] The concentration of pXVhPR-A vector chosen was determined by performing the experiment at several different concentrations of vector, and then using that concentration that was optimal for transcriptional readout. […] The Normalized LUC activity was calculated by dividing the raw luciferase (×10^4) units for each point by the β-galactosidase activity [(OD415 nm ×10^5)/time min.] at that point.

[3] = test system: PR-B (co-expressed with PR-A); assay: PR-A repression of PR-B mediated MMTV-LUC transcription (co-transfection); assay type: cell-based, human; conditions: for transcriptional repression: HeLa, FIG. 3B
Experimental: FIGS 3A-3B are a series of graphs showing CV-1 (FIG. 3A) or HeLa (FIG. 3B) cells that were transiently transfected with either 0.25 g of phPR-A or 0.25 g phPR-B alone, or 0.25 g phPR-B in the presence of increasing concentration of phPR-A together with […] of the MMTV-LUC reporter and […] of pCH110 as an internal control. […] The relative luciferase activity is calculated by dividing the normalized luciferase value at a given point by that obtained in the absence of transfected receptor or ligand. Data shown indicate the mean +/- average deviation from the mean of triplicate estimations;
as §1
Cells were seeded 24 hours prior to transfection in the fiat-bottom tissue culture plates ([…]) in phenol red-free DMEM containing 10% FCS. […] Using calcium phosphate co-precipitation, DNA solution was added dropwise with vortexing into an equal volume of 2X HBS pH 6.9 (280 mM NaCl. 50 mM HEPES, 1.5 mM Na2 HPO4) and precipitates were allowed to form for 20 minutes. Cells were transfected ( […] of DNA mix/well) for 6 hours and then washed with phosphate-bufferedsaline (PBS) to remove the precipitate. Cells were incubated for an additional 24 hours in phenol red-free medium containing 10% charcoal-treated FCS, with or without hormones as indicated in the text. Cell extracts were prepared as described by Berger et al., Supra, and assayed for luciferase and β-galactosidase activities. All determinations were performed in triplicates in at least two independent experiments, and were normalized for transfection efficiency by using β-galactosidase as an internal control.

| SMILES | anti-estrogenic activity (ER; HS578T cells) | anti-estrogenic activity (ER; HepG2 cells) | effect of PR-B co-expression on GR function [1] | reduction of transcriptional activity of PR-B [2] [%] | direct effects on ER (human estrogen receptor) | recovery of PR-B mediated transcription ([3]; CV-1, PR-A/PR-B DNA ratio 1:5) [%] | recovery of PR-B mediated transcription ([3]; CV-1, PR-A/PR-B DNA ratio 1:25) [%] | inhibition of MMTV-LUC transcriptional activity ([3]; CV-1, equimolar concentrations of PR-A and PR-B) | transcriptional repression ([3]; 1:1 PR-A/PR-B DNA ratio) [%] | transcriptional repression ([3]; 1:5 PR-A/PR-B DNA ratio) [%] | transcriptional repression ([3]; 1:25 PR-A/PR-B DNA ratio) [%] | effect of coexpression of PR-A and PR-B on MMTV transcription ([3]; HepG2, data not shown) | IC50 ([3]; read-out: progesterone concentration required for half maximal inhibition, CV-1, PR-A mediated repression of PR-B, MMTV) [nM] |
| --- | --- | --- | --- | --- | --- | --- | --- | --- | --- | --- | --- | --- | --- |
| CC#C[C@]1(O)CC[C@H]2[C@@H]3CCC4=CC(=O)CCC4=C3[C@@H](c3ccc(C(C)=O)cc3)C[C@@]21C [ZK112993] | both anti-progestins functioned as anti-estrogens | neither anti-progestin exhibited any anti-estrogenic activity | – | – | – | – | – | – | – | – | – | – | – |
| CC(=O)[C@H]1CC[C@H]2[C@@H]3CCC4=CC(=O)CC[C@]4(C)[C@H]3CC[C@]12C [progesterone] | – | – | minimal effects on GR function | […] | no direct effects on ER were observed | […] | […] | […] | […] | […] | […] | […] | […] |
